Test results reported in patent US20090285919A1, “Rice Bran Extracts for Inflammation and Methods of Use Thereof” (priority 2008, published 2009).

Molecular target: T1, COX-2 (Homo sapiens, UniProt P35354)
T1 construct: purchased Cayman Chemicals (Ann Arbor, Mich.)
T1 sequence (P35354 18-604): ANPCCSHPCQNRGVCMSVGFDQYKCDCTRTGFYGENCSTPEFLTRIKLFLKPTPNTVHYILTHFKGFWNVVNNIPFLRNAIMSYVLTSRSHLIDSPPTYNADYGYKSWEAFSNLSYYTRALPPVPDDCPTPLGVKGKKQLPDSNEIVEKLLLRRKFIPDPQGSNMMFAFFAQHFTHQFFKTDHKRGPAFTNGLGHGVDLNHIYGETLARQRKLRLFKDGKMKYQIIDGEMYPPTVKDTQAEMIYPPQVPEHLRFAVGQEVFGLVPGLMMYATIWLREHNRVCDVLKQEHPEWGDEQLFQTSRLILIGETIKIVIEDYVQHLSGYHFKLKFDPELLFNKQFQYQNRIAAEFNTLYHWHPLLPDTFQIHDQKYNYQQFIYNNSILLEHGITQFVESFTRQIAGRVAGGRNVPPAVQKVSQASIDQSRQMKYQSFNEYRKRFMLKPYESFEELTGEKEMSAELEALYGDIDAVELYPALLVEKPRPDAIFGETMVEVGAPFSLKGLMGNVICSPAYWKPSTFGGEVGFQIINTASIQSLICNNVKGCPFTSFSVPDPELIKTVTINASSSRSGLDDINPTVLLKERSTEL
Test: COX-2 inhibition assay (Cayman Chemicals; prostaglandin production quantified by EIA)
Format: biochemical
Settings: in words; known compounds of SRB Extract 1
Protocol: All reagents and solutions were prepared according to the protocols established by Cayman Chemicals (Ann Arbor, Mich.) for the COX-1 and COX-2 inhibition assays. Two procedures were utilized to assess the COX-1/COX-2-specific and non-specific activities.
Prostaglandin Production Inhibition: Extracts were diluted in dimethylsulfoxide (DMSO), and then diluted in reaction buffer so that the final concentration of DMSO was 1%. Reactions were either run with COX-1 or COX-2 in the presence of Heme. Wells containing potential inhibitors (SRB extracts), non-inhibitor (100% activity) or background wells (heat inactivated enzyme) along with appropriate blanks were prepared. Solutions were placed in a 37° C. incubator for 15 minutes prior to running the reaction. Arachidonic acid was added and mixed and the reaction proceeded for 2 minutes. The reaction was stopped by addition of 1 M HCl to each well, then reducing the Prostaglandin H2 product to ProstaglandinG F2, which was quantified using EIA.
Quantification of Prostaglandin with EIA: The EIA assay plate was provided in the Cayman Chemicals screening kit. Aliquots, 50 μL, of the reaction products (PGF2) from prostaglandin production were added to their respective wells. […] The color development was quantified at 409 nm in a Tecan M200 microplate reader.

CCCc1ccccn1 [conyrin]
COX-2 inhibition: strong

CC1(C)C[C@@H](O)C[C@@]2(C)OC(=O)C=C12 [epiloliode, Epiloliolide]
COX-2 inhibition: strong
